“And” between values parts separate entries of the source, which are not always exact repeats. Equal entries are not always repeated. Where two headings read alike, the source gives them in different places.
Legend:
[1] = test system: porcine liver samples; details: for Tissue destruction, visual observation: injected alone into porcine liver
[2] = test system: liver parenchyma; set-up: species or system porcine; details: for Final thermocouple pH after five minutes: after NaOH pre-injection
[3] = 100 microliters alone, 0:00 min
[4] = 100 microliters alone, 0:15 min
[5] = 100 microliters alone, 0:30 min
[6] = 100 microliters alone, 1:00 min
[7] = 100 microliters alone, 1:15 min

## CC(=O)OC(C)=O [Acetic Anhydride]
[1]
  Recorded temperature changes: 0.0-2.94 degrees C.
  Temperature change from baseline: ≥ 1.0 degree C.
  Tissue destruction, visual observation: larger volumes of Acetic Anhydride correlated with greater areas of tissue destruction
[1]; [3]
  pH: 6.33 and 7.52 and 7.1 and 6.14 and 6.23
[1]; [4]
  pH: 5.2 and 3.75 and 3.34 and 5.7 and 6.03
[1]; [5]
  pH: 5.06 and 3.54 and 3.2 and 5.63 and 6.01
[1]; 100 microliters alone, 0:45 min
  pH: 4.9 and 3.43 and 3.11 and 5.54 and 5.92
[1]; [6]
  pH: 4.81 and 3.36 and 3.05 and 5.42 and 5.91
[1]; [7]
  pH: 4.75 and 3.27 and 2.98 and 5.25 and 5.87
[1]; 100 microliters alone, 2:00 min
  pH: 4.47 and 3.09 and 2.77 and 4.3 and 5.5
[1]; 100 microliters alone, 2:15 min
  pH: 4.4 and 3.03 and 2.75 and 4.23 and 5.3
[1]; 100 microliters alone, 2:30 min
  pH: 4.35 and 2.96 and 2.71 and 4.21 and 4.79
[1]; 100 microliters alone, 2:45 min
  pH: 4.3 and 2.92 and 2.68 and 4.16 and 4.65
[1]; 100 microliters alone, 3:00 min
  pH: 4.25 and 2.9 and 2.65 and 4.12 and 4.57
[1]; 100 microliters alone, 3:15 min
  pH: 4.22 and 2.88 and 2.61 and 4.01 and 4.48
[1]; 100 microliters alone, 3:30 min
  pH: 4.2 and 2.84 and 2.57 and 4.01 and 4.46
[1]; 100 microliters alone, 3:45 min
  pH: 4.16 and 2.81 and 2.54 and 3.97 and 4.4
[1]; 100 microliters alone, 4:00 min
  pH: 4.14 and 2.78 and 2.5 and 3.93 and 4.38
[1]; 100 microliters alone, 4:15 min
  pH: 4.1 and 2.75 and 2.49 and 3.86 and 4.35
[1]; 100 microliters alone, 4:30 min
  pH: 4.09 and 2.74 and 2.46 and 3.84 and 4.32
[1]; 100 microliters alone, 4:45 min
  pH: 4.06 and 2.72 and 2.42 and 3.8 and 4.3
[1]; 100 microliters alone, 5:00 min
  pH: 4.05 and 2.7 and 2.41 and 3.74 and 4.29
[1]; 200 microliters alone, 1:00 min
  pH: 4.91 and 3.36 and 3.21 and 5.41 and 4.80
[1]; 200 microliters alone, lower line of Changes (fits 0:00 vs 5:00)
  Changes, pH (lower line): 1.85 and 2.70 and 3.42 and 2.10 and 2.42
[1]; 300 microliters alone
  Injections producing greater than one degree Celsius temperature change: three out of five injections
[2]
  Recorded temperature change: 1.4-9.4 degrees C.
  Final thermocouple pH after five minutes: overwhelmingly basic

## CC(=O)Cl [Acetyl Chloride]
[1]; 100 microliters alone, different temp probe, 0:00 min
  Temp: 16.4 C. and 17.1 C. and 17.4 C. and 16.6 C. and 17 C.
[1]; 100 microliters alone, different temp probe, 0:30 min
  Temp: 22.5 C. and 32 C. and 39 C. and 42.2 C. and 32.3 C.
[1]; 100 microliters alone, different temp probe, 0:45 min
  Temp: 21.5 C. and 27.5 C. and 33.5 C. and 33.9 C. and 27.3 C.
[1]; 100 microliters alone, different temp probe, 1:00 min
  Temp: 21 C. and 25 C. and 30.6 C. and 30.7 C. and 25.7 C.
[1]; 100 microliters alone, different temp probe, 1:15 min
  Temp: 20.2 C. and 24 C. and 28.4 C. and 27.8 C. and 23.9 C.
[1]; 100 microliters alone, different temp probe, 1:30 min
  Temp: 19.6 C. and 23.5 C. and 27 C. and 26.2 C. and 23.1 C.
[1]; 100 microliters alone, different temp probe, 1:45 min
  Temp: 19 C. and 22.7 C. and 25.6 C. and 25 C. and 22.3 C.
[1]; 100 microliters alone, different temp probe, 2:00 min
  Temp: 18.4 C. and 22.1 C. and 24.7 C. and 24.2 C. and 21.6 C.
[1]; 100 microliters alone, different temp probe, 2:15 min
  Temp: 18.3 C. and 21.4 C. and 23.9 C. and 23.2 C. and 21.1 C.
[1]; 100 microliters alone, different temp probe, 2:30 min
  Temp: 18.1 C. and 21.1 C. and 23.3 C. and 22.6 C. and 20.6 C.
[1]; 100 microliters alone, different temp probe, 2:45 min
  Temp: 18 C. and 20.6 C. and 22.6 C. and 22 C. and 20.2 C.
[1]; 100 microliters alone, different temp probe, 3:00 min
  Temp: 17.9 C. and 20.3 C. and 22.1 C. and 21.5 C. and 19.9 C.
[1]; 100 microliters alone, different temp probe, 3:15 min
  Temp: 17.8 C. and 20.1 C. and 21.7 C. and 21.1 C. and 19.6 C.
[1]; 100 microliters alone, different temp probe, 3:45 min
  Temp: 17.6 C. and 19.5 C. and 21 C. and 20.4 C. and 19.1 C.
[1]; 100 microliters alone, different temp probe, 4:00 min
  Temp: 17.5 C. and 19.4 C. and 20.7 C. and 20.1 C. and 18.9 C.
[1]; 100 microliters alone, different temp probe, 4:15 min
  Temp: 17.5 C. and 19.2 C. and 20.4 C. and 19.9 C. and 18.9 C.
[1]; 100 microliters alone, different temp probe, 4:30 min
  Temp: 17.4 C. and 19 C. and 20.2 C. and 19.6 C. and 18.6 C.
[1]; 100 microliters alone, different temp probe, 4:45 min
  Temp: 17.3 C. and 18.8 C. and 20 C. and 19.4 C. and 18.4 C.
[1]; 100 microliters alone, different temp probe, 5:00 min
  Temp: 17.3 C. and 18.6 C. and 19.8 C. and 19.2 C. and 18.3 C.
[1]; [3]
  pH: 6.14 and 6.55 and 6.5 and 5.7
[1]; [4]
  pH: 3.1 and 4.67 and 4.62 and 4.82
[1]; [5]
  pH: 2.5 and 3.59 and 3.32 and 4.57
[1]; [6]
  Temp: 27.4 C. and 24.5 C. and 23.4 C. and 22.8 C.
[1]; [7]
  Temp: 26.2 C.
[1]
  Tissue destruction, visual observation: more violent and rapid tissue destruction than Acetic Anhydride
[2]; 100, 200, 300 microliters after 100 or 200 microliters of 1M-15M NaOH, 21 injections
  Temperature changes: 7.9-32 degrees Celsius
[2]
  Final thermocouple pH after five minutes: more acidic pH
[2]; eleven of the twenty-one runs, with NaOH
  Temperature changes in the first thirty seconds after injection: 20-30 degrees Celsius
